According to US6217866A, “Monoclonal antibodies specific to human epidermal growth factor receptor and therapeutic methods employing same” (Rhone-Poulenc Rorer International (Holdings), Inc., priority 1995, dated 2001):

Experiments:
KB cells = experiment: colony inhibition assay of KB cells; format: cell-based, human
Procedure: KB cells were seeded in petri dishes (50×15 mm^2, NUNC) at a concentration of 2×10^2 cells per dish. […] On the sixth day cultures were fed with fresh medium containing the above ingredients. On the 15th day the cultures were washed with PBS, fixed with 4% v/v formaldehyde in PBS for 15 min. and stained with hematoxylin. Number of formed colonies (25 cells) was then determined.

[1] = system: EGF receptors exposed on KB cells; experiment: competitive radioimmunoassay with 125I 108 monoclonal antibody on KB cells; format: binding, human
Procedure: The cells were then washed, solubilized in 0.5N NaOH and their radioactivity was determined in a counter (Kontron, Switzerland). Non-specific binding was determined by the addition of 100-fold excess of unlabelled monoclonal antibody.

With epidermal growth factor [EGF] the “size of KB cell colonies” value (KB cells; EGF) was “increase in the size of KB cell colonies”, the “number of colonies compared to cells incubated in absence of growth factor” value (KB cells; EGF 160 nM, 15 days after seeding) was 150% and the “maximal level of competition with binding of the antibody to the receptor” value [1] was “about 70%”.
